Test results reported in the supplement of paper PMC5579334.

How the values were obtained:
ST8814 [1] = assay: relative IC50 (inflection point of fitted dose-response curve, CellTox-Green cytotoxicity, 72 h; top asymptote may be below 50%); higher = less potent
How it was run: (§1)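 For 72 h at 37 °C, MPNST cell lines and primary human Schwann cells were exposed in 384-well plates to five 10-fold compound dilutions. CellTox-Green, added before seeding at a final 1:1000 dilution, gave fluorescence from DNA released by disrupted cells. Signals were scaled to vehicle and positive-control wells, cultures failing plate quality control were left out, and four-parameter logistic fits were applied. Relative IC50 and drug sensitivity score were derived from the fits, with IC50 censored at the top concentration.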

STS26T [2] = assay: as above
How it was run: as §1

S1507-2 [3] = assay: as above
How it was run: as §1

HSC2 [4] = assay: as above
How it was run: as §1

STS26T [5] = assay: relative IC50 (inflection point of fitted dose-response curve, CellTiter-Glo viability, 72 h; top asymptote may be below 50% inhibition); higher = less potent
How it was run: (§2)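 After seeding 750–1000 cells per well of MPNST cell lines or primary human Schwann cells into 384-well plates preprinted with each compound at five concentrations in 10-fold steps, plates were kept 72 h at 37 °C, 5% CO2. Viability was read as CellTiter-Glo ATP luminescence relative to vehicle and positive-control wells, with duplicates averaged where present. The data were fitted with four-parameter logistic models. Drug sensitivity score and relative IC50, censored at the top concentration, derive from the fits, and percent inhibition refers to the top concentration.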

S1507-2 [6] = assay: as above
How it was run: as §2

HSC2 [7] = assay: as above
How it was run: as §2

HSC1 [8] = assay: relative IC50 (inflection point of fitted dose-response curve, CellTox-Green cytotoxicity, 72 h; top asymptote may be below 50%); higher = less potent
How it was run: as §1

HS-PSS [9] = assay: as above
How it was run: as §1

HSC1 [10] = assay: relative IC50 (inflection point of fitted dose-response curve, CellTiter-Glo viability, 72 h; top asymptote may be below 50% inhibition); higher = less potent
How it was run: as §2

ST8814 [11] = assay: as above
How it was run: as §2

S462 = assay: as above
How it was run: as §2

HS-PSS [12] = assay: as above
How it was run: as §2

HS-Sch-2 = assay: as above
How it was run: as §2

YST-1 = assay: as above
How it was run: as §2

Structure (SMILES) | relative IC50 (ST8814 [1]) | relative IC50 (STS26T [2]) | relative IC50 (S1507-2 [3]) | relative IC50 (HSC2 [4]) | relative IC50 (STS26T [5]) | relative IC50 (S1507-2 [6]) | relative IC50 (HSC2 [7]) | relative IC50 (HSC1 [8]) | relative IC50 (HS-PSS [9]) | relative IC50 (HSC1 [10]) | relative IC50 (ST8814 [11]) | relative IC50 (S462) | relative IC50 (HS-PSS [12]) | relative IC50 (HS-Sch-2) | relative IC50 (YST-1)
CC(C)NC[C@@H](C(=O)N1CCN(c2ncnc3c2[C@H](C)C[C@H]3O)CC1)c1ccc(Cl)cc1 [GDC-0068] | > 10 µM | > 10 µM | > 10 µM | > 10 µM | 0.544 µM | 2.06 µM | > 10 µM | – | – | – | – | – | – | – | –
COc1cc(F)c(F)c(Nc2ccc(I)cc2F)c1NS(=O)(=O)C1(C[C@H](O)CO)CC1 [Refametinib] | 1.6 µM | – | 1.86 µM | – | 0.306 µM | 0.362 µM | 0.443 µM | > 10 µM | 3.27 µM | 0.849 µM | 0.451 µM | 0.382 µM | 1.8 µM | 1.62 µM | –
O=C(O)CCCc1ccc(N(CCCl)CCCl)cc1 [Chlorambucil] | > 10 µM | > 10 µM | > 10 µM | > 10 µM | > 10 µM | > 10 µM | – | > 10 µM | > 10 µM | – | > 10 µM | > 10 µM | > 10 µM | > 10 µM | –
N[C@@H](CSC(c1ccccc1)(c1ccccc1)c1ccccc1)C(=O)O [S-trityl-L-cysteine] | > 40 µM | > 40 µM | > 40 µM | > 40 µM | – | > 40 µM | > 40 µM | > 40 µM | – | – | > 40 µM | – | – | – | –
Cc1nc(C(=O)NCC(=O)O)c(O)c2ccc(Oc3ccccc3)cc12 [FG-4592] | > 10 µM | > 10 µM | > 10 µM | > 10 µM | > 10 µM | > 10 µM | – | > 10 µM | > 10 µM | – | > 10 µM | > 10 µM | 1.21 µM | 2.47 µM | > 10 µM
O=C1CN2Cc3c(ccc(Cl)c3Cl)N=C2N1 [Anagrelide] | > 10 µM | > 10 µM | > 10 µM | – | > 10 µM | > 10 µM | 0.134 µM | > 10 µM | > 10 µM | – | – | > 10 µM | > 10 µM | 0.144 µM | > 10 µM
CC(C)(C)c1nc(-c2cccc(NS(=O)(=O)c3c(F)cccc3F)c2F)c(-c2ccnc(N)n2)s1 [Dabrafenib] | > 2.5 µM | > 2.5 µM | > 2.5 µM | > 2.5 µM | 0.0728 µM | – | 0.0633 µM | > 2.5 µM | > 2.5 µM | 0.22 µM | 0.968 µM | 0.668 µM | 1 µM | – | –
C[C@]12C=CC(=O)C=C1CC[C@@H]1[C@@H]2C(=O)C[C@@]2(C)[C@H]1CC[C@]2(O)C(=O)CO [Prednisone] | > 10 µM | > 10 µM | > 10 µM | > 10 µM | > 10 µM | – | > 10 µM | > 10 µM | > 10 µM | > 10 µM | > 10 µM | > 10 µM | > 10 µM | – | > 10 µM
Clc1ccc(Nc2nnc(Cc3ccncc3)c3ccccc23)cc1 [Vatalanib] | > 10 µM | > 10 µM | > 10 µM | > 10 µM | > 10 µM | > 10 µM | – | > 10 µM | > 10 µM | > 10 µM | > 10 µM | – | – | – | –
CC1(C)CCC(c2ccc(Cl)cc2)=C(CN2CCN(c3ccc(C(=O)NS(=O)(=O)c4ccc(N[C@H](CCN5CCOCC5)CSc5ccccc5)c(S(=O)(=O)C(F)(F)F)c4)cc3)CC2)C1 [Navitoclax] | 1.5 µM | – | 0.608 µM | 0.983 µM | – | 0.582 µM | 1.12 µM | 1.54 µM | > 10 µM | – | – | – | > 10 µM | 0.547 µM | 0.471 µM
CCCCC/C=C/C=C1/C(=O)C=C[C@@H]1C/C=C\CCCC(=O)O [15D-PGJ2] | > 0.8 µM | > 0.8 µM | > 0.8 µM | > 0.8 µM | > 0.8 µM | – | > 0.8 µM | > 0.8 µM | > 3 µM | > 0.8 µM | > 0.8 µM | > 0.8 µM | > 3 µM | – | > 3 µM
CC(O)(CS(=O)(=O)c1ccc(F)cc1)C(=O)Nc1ccc(C#N)c(C(F)(F)F)c1 (stereo not given) [Bicalutamide] | > 10 µM | > 10 µM | > 10 µM | > 10 µM | – | > 10 µM | > 10 µM | > 10 µM | > 10 µM | – | > 10 µM | – | – | – | > 10 µM
CCn1c(C(=O)N(C2CC2)C2CC2)cc2c3c(ncn3C)c(Nc3cc(C)n(C)n3)nc21 | > 10 µM | > 10 µM | > 10 µM | > 10 µM | > 10 µM | – | > 10 µM | > 10 µM | > 10 µM | > 10 µM | > 10 µM | > 10 µM | > 10 µM | – | 1.59 µM
Nc1nccc(-c2c(-c3ccc(F)cc3)ncn2C2CCCCC2)n1 | > 10 µM | – | > 10 µM | > 10 µM | > 10 µM | > 10 µM | > 10 µM | > 10 µM | – | > 10 µM | – | > 10 µM | – | 3.78 µM | 0.8 µM
COc1cccc2c1C(=O)c1c(O)c3c(c(O)c1C2=O)C[C@@](O)(C(C)=O)C[C@@H]3O[C@H]1C[C@H](N)[C@H](O)[C@H](C)O1 [Daunorubicin] | – | – | > 1 µM | 0.344 µM | 0.0716 µM | 0.146 µM | 0.0725 µM | 0.366 µM | > 1 µM | 0.12 µM | 0.101 µM | 0.0493 µM | 0.122 µM | 0.117 µM | 0.027 µM
CC(C)C(=O)Nc1ccc([N+](=O)[O-])c(C(F)(F)F)c1 [Flutamide] | > 10 µM | > 10 µM | > 10 µM | > 10 µM | – | > 10 µM | > 10 µM | > 10 µM | > 10 µM | – | > 10 µM | > 10 µM | – | > 10 µM | > 10 µM
O=C(Nc1cccnc1)N1CCC(Cc2cccc(Oc3ccc(C(F)(F)F)cn3)c2)CC1 [PF-3845] | > 10 µM | > 10 µM | > 10 µM | – | – | > 10 µM | 1.43 µM | > 10 µM | > 10 µM | 1.52 µM | – | – | 1.41 µM | 3.07 µM | 3.52 µM
CC[C@H](CO)Nc1nc(NCc2ccccc2)c2ncn(C(C)C)c2n1 [Seliciclib] | > 10 µM | – | > 10 µM | > 10 µM | – | > 10 µM | 3.99 µM | > 10 µM | – | – | > 10 µM | 3.61 µM | 1.67 µM | – | > 10 µM
N#Cc1ccc(COC[C@H]2O[C@@H](n3c(NCc4ccc(Cl)c(Cl)c4)nc4c(N)ncnc43)[C@H](O)[C@@H]2O)cc1 | > 10 µM | – | > 10 µM | > 10 µM | 1.1 µM | > 10 µM | 0.261 µM | > 10 µM | > 10 µM | 0.784 µM | > 10 µM | – | – | > 10 µM | 1.24 µM
CS(=O)(=O)c1ccc(C2=C(c3ccccc3)C(=O)OC2)cc1 [Rofecoxib] | > 10 µM | > 10 µM | > 10 µM | > 10 µM | > 10 µM | – | > 10 µM | > 10 µM | > 10 µM | > 10 µM | > 10 µM | > 10 µM | > 10 µM | > 10 µM | > 10 µM
COc1cc2c(NC3CCN(C(C)C)CC3)nc(N3CCC(F)(F)CC3)nc2cc1OCCCN1CCCC1 [UNC0642] | 3.02 µM | 2.91 µM | 2.9 µM | > 10 µM | 3.06 µM | 1.94 µM | > 10 µM | > 10 µM | 2.96 µM | – | 2.97 µM | 2.69 µM | 2.6 µM | 2.88 µM | 3.19 µM
O=P1(NCCCl)OCCCN1CCCl (stereo not given) [Ifosfamide] | > 10 µM | > 10 µM | > 10 µM | > 10 µM | > 10 µM | – | > 10 µM | > 10 µM | > 10 µM | > 10 µM | > 10 µM | > 10 µM | > 10 µM | > 10 µM | –
COC(=O)c1ccc2c(c1)NC(=O)/C2=C(\Nc1ccc(N(C)C(=O)CN2CCN(C)CC2)cc1)c1ccccc1 [Nintedanib] | > 10 µM | > 10 µM | > 10 µM | > 10 µM | > 10 µM | – | > 10 µM | > 10 µM | – | > 10 µM | > 10 µM | > 10 µM | 3.97 µM | 3.71 µM | 1.12 µM
C#Cc1cccc(Nc2ncnc3cc(OCCOC)c(OCCOC)cc23)c1 [Erlotinib] | > 10 µM | > 10 µM | > 10 µM | > 10 µM | 2.06 µM | – | 2.31 µM | > 10 µM | > 10 µM | 2.36 µM | 3.13 µM | 2.31 µM | 2.1 µM | 1.55 µM | 1.47 µM
Oc1ccc2c(c1)CC[C@H](c1ccccc1)[C@@H]2c1ccc(OCCN2CCCC2)cc1 [Lasofoxifene] | > 1 µM | > 1 µM | > 1 µM | > 1 µM | > 1 µM | > 1 µM | > 1 µM | > 1 µM | > 1 µM | > 1 µM | > 1 µM | – | – | > 1 µM | > 1 µM
Cc1ccc(-c2cc(C(F)(F)F)nn2-c2ccc(S(N)(=O)=O)cc2)cc1 [Celecoxib] | > 10 µM | > 10 µM | > 10 µM | > 10 µM | > 10 µM | > 10 µM | > 10 µM | > 10 µM | > 10 µM | – | > 10 µM | > 10 µM | > 10 µM | > 10 µM | > 10 µM
CCNC(=O)CCC/C=C\C[C@@H]1[C@@H](/C=C/[C@@H](O)CCc2ccccc2)[C@H](O)C[C@@H]1O [Bimatoprost] | > 5.5 µM | > 5.5 µM | > 5.5 µM | > 5.5 µM | > 5.5 µM | > 5.5 µM | > 5.5 µM | > 5.5 µM | > 5.5 µM | > 5.5 µM | > 5.5 µM | – | > 5.5 µM | > 5.5 µM | > 5.5 µM
CC1(C)NC(=O)N(c2ccc([N+](=O)[O-])c(C(F)(F)F)c2)C1=O [Nilutamide] | > 10 µM | > 10 µM | > 10 µM | > 10 µM | > 10 µM | > 10 µM | > 10 µM | > 10 µM | > 10 µM | – | > 10 µM | > 10 µM | – | – | > 10 µM
